Experiments:
[1] = molecular target: T1, wt human TYK2, catalytic site (Homo sapiens, UniProt P29597); assay: HTRF KinEASE assay, TYK2; type: biochemical; details: 1 μM ATP; read-out: IC50, inhibitory activity toward TYK2
T1 construct: 2 nM wt human TYK2, catalytic site (SignalChem/CAN); purchased SignalChem/CAN
T1 sequence (P29597 897-1176 limits assumed): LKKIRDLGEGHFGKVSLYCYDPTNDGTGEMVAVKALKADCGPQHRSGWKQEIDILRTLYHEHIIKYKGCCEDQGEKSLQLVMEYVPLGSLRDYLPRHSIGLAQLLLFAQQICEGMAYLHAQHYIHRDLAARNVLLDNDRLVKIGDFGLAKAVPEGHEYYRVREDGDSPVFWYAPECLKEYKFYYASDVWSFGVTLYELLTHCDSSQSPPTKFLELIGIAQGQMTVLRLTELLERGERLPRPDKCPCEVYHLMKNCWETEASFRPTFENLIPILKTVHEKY
Description: Basic protocol for HTRF KinEASE assay (Cisbio/FRA) inhibitor studies involved two steps: Enzymatic step: Addition of 4 μl of test compound in corresponding DMSO dilutions, 4 μl of kinase/substrate mixture, 2 μl of ATP into 384 well small volume plates. Incubation for at least 30 minutes at room temperature.
Detection step: Addition of 5 μl antibody and 5 μl streptavidin-XL665, read plate after 60 minutes. Data analysis of emission ratios according to KinEASE assay protocol.
Kinase and assay components were adjusted to final concentrations according to the kit protocol. For TYK2: 2 nM wt human TYK2, catalytic site (SignalChem/CAN), 1 μM HTRF KinEASE-TK Substrate-biotin, 1 μM ATP in 1× Kinase Buffer

[2] = molecular target: T2, wt human NUAK1, full length (Homo sapiens, UniProt O60285); assay: TR-FRET LanthaScreen Eu Kinase Binding Assay, NUAK1; details: 5 nM Kinase Tracer 236; read-out: IC50, inhibitory activity toward NUAK1
T2 construct: 8 nM wt human NUAK1, full length (ThermoFisher/USA); purchased ThermoFisher/USA
T2 sequence (O60285 1-661): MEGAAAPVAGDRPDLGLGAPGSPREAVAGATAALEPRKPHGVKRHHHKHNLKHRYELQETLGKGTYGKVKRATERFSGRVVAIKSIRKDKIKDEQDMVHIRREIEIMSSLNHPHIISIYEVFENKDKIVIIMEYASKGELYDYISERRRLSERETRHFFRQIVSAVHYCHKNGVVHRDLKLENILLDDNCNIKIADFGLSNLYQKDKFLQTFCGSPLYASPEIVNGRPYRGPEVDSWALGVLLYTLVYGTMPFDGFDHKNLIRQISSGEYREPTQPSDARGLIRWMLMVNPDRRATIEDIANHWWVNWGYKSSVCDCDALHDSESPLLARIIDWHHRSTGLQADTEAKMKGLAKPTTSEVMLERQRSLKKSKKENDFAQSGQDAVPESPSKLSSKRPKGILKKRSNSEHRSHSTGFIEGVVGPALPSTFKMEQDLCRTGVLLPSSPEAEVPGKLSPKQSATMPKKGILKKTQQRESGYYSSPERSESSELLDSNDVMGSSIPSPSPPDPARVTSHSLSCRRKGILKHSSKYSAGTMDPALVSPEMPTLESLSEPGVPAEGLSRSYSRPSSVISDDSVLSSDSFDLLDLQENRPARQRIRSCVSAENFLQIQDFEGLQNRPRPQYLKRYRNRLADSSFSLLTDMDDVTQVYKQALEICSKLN
In short: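 TR-FRET tracer-displacement binding with 8 nM full-length wild-type human NUAK1, 2 nM Eu-anti-His antibody and 5 nM Kinase Tracer 236 in 1× Kinase Buffer A (final). Compound, kinase/antibody and tracer incubated 1 h at room temperature; emission ratios analysed per kit protocol.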

| SMILES | IC50 [1] [nM] | IC50 [2] [nM] |
| --- | --- | --- |
| COc1ccc2c(c1)-c1[nH]ncc1N=C(c1c(F)cccc1Cl)N2 [Compound 39, 5-(2-chloro-6-fluorophenyl)-9-methoxy-1,6-dihydrobenzo[d]pyrazolo[3,4-f][1,3]diazepine] | 100 to 1000 | 100 to 1000 |
| Fc1cccc(F)c1C1=Nc2cn[nH]c2-c2cc(OC(F)F)ccc2N1 [Compound 42, 9-(difluoromethoxy)-5-(2,6-difluorophenyl)-1,6-dihydrobenzo[d]pyrazolo[3,4-f][1,3]diazepine] | 100 to 1000 | 10 to 100 |
| Fc1cccc(Cl)c1C1=Nc2cn[nH]c2-c2cc(OC(F)F)ccc2N1 [Compound 43, 5-(2-chloro-6-fluorophenyl)-9-(difluoromethoxy)-1,6-dihydrobenzo[d]pyrazolo[3,4-f][1,3]diazepine] | 100 to 1000 | 10 to 100 |
| CCc1ccc2c(c1)-c1[nH]ncc1N=C(c1c(F)cccc1Cl)N2 [Compound 45, 5-(2-chloro-6-fluorophenyl)-9-ethyl-1,6-dihydrobenzo[d]pyrazolo[3,4-f][1,3]diazepine] | 100 to 1000 | 100 to 1000 |
| COc1ccc2c(c1)N=C(c1c(F)cccc1F)Nc1cn[nH]c1-2 [Compound 49, 5-(2,6-difluorophenyl)-8-methoxy-1,4-dihydrobenzo[d]pyrazolo[3,4-f][1,3]diazepine] | 10 to 100 | 100 to 1000 |
| OCc1ccc2c(c1)-c1[nH]ncc1N=C(c1c(F)cccc1F)N2 [Compound 50, (5-(2,6-difluorophenyl)-1,6-dihydrobenzo[d]pyrazolo[3,4-f][1,3]diazepin-9-yl)methanol] | 100 to 1000 | 10 to 100 |
| Fc1cccc(F)c1C1=Nc2ccncc2-c2[nH]ncc2N1 [Compound 53, 5-(2,6-difluorophenyl)-1,4-dihydropyrazolo[4,3-d]pyrido[3,4-f][1,3]diazepine] | 10 to 100 | 10 to 100 |
| Cc1cnc2c(c1)-c1[nH]ncc1N=C(c1c(F)cccc1F)N2 [Compound 61, 5-(2,6-difluorophenyl)-9-methyl-1,6-dihydropyrazolo[4,3-d]pyrido[3,2-f][1,3]diazepine] | 100 to 1000 | 10 to 100 |
| Fc1cccc(F)c1C1=Nc2cn[nH]c2-c2cc(Cl)cnc2N1 [Compound 64, 9-chloro-5-(2,6-difluorophenyl)-1,6-dihydropyrazolo[4,3-d]pyrido[3,2-f][1,3]diazepine] | 100 to 1000 | 10 to 100 |
| Fc1cccc(F)c1C1=Nc2cn[nH]c2-c2cn(-c3ccccc3)nc2N1 [Compound 68, 5-(2,6-difluorophenyl)-8-phenyl-6,8-dihydro-1H-dipyrazolo[3,4-d:3 ′,4′-f][1,3]diazepine] | 10 to 100 | 10 to 100 |
| Fc1cccc(F)c1C1=Nc2c(Br)n[nH]c2-c2ccccc2N1 [Compound 69, 3-bromo-5-(2,6-difluorophenyl)-1,6-dihydrobenzo[d]pyrazolo[3,4-f][1,3]diazepine] | 10 to 100 | 10 to 100 |
| Fc1cccc(F)c1C1=Nc2cnccc2-c2[nH]ncc2N1 [Compound 71, 5-(2,6-difluorophenyl)-1,4-dihydropyrazolo[4,3-d]pyrido[4,3-f][1,3]diazepine] | 10 to 100 | < 10 |
| Fc1cccc(F)c1C1=Nc2cn[nH]c2-c2cn[nH]c2N1 [Compound 72, 5-(2,6-difluorophenyl)-6,7-dihydro-1H-dipyrazolo[3,4-d:3′,4′-f][1,3]diazepine] | 10 to 100 | 10 to 100 |
| O=C(O)c1ccc2c(c1)N=C(c1c(F)cccc1F)Nc1cn[nH]c1-2 [Compound 73, 5-(2,6-difluorophenyl)-1,4-dihydrobenzo[d]pyrazolo[3,4-f][1,3]diazepine-8-carboxylic acid] | < 10 | 10 to 100 |
| Cc1n[nH]c2c1NC(c1c(F)cccc1F)=Nc1ccccc1-2 [Compound 76, 5-(2,6-difluorophenyl)-3-methyl-1,4-dihydrobenzo[d]pyrazolo[3,4-f][1,3]diazepine] | 10 to 100 | 10 to 100 |
| O=C(c1ccc2c(c1)N=C(c1c(F)cccc1Cl)Nc1cn[nH]c1-2)N1CCOCC1 [Compound 78, (5-(2-chloro-6-fluorophenyl)-1,4-dihydrobenzo[d]pyrazolo[3,4-f][1,3]diazepin-8-yl)(morpholino)methanone] | 100 to 1000 | 100 to 1000 |
| Fc1cccc(Cl)c1C1=Nc2c(Br)n[nH]c2-c2cccnc2N1 [Compound 88] | 10 to 100 | 10 to 100 |
| FC(F)Oc1ccc2c(c1)-c1[nH]ncc1N=C(c1c(Cl)cccc1Cl)N2 [Compound 90, 5-(2,6-dichlorophenyl)-9-(difluoromethoxy)-1,6-dihydrobenzo[d]pyrazolo[3,4-f][1,3]diazepine] | 100 to 1000 | 100 to 1000 |
| NC(=O)c1ccc2c(c1)-c1[nH]ncc1NC(c1c(F)cccc1F)=N2 [Compound 93, 5-(2,6-difluorophenyl)-1,4-dihydrobenzo[d]pyrazolo[3,4-f][1,3]diazepine-9-carboxamide] | 100 to 1000 | 10 to 100 |
| NC(=O)c1ccc2c(c1)-c1[nH]ncc1N=C(c1c(F)cccc1Cl)N2 [Compound 94, 5-(2-chloro-6-fluorophenyl)-1,6-dihydrobenzo[d]pyrazolo[3,4-f][1,3]diazepine-9-carboxamide] | 100 to 1000 | 10 to 100 |
| O=C(NC1CCOCC1)c1ccc2c(c1)N=C(c1c(F)cccc1F)Nc1cn[nH]c1-2 [Compound 95, 5-(2,6-difluorophenyl)-N-(tetrahydro-2H-pyran-4-yl)-1,4-dihydrobenzo[d]pyrazolo[3,4-f][1,3]diazepine-8-carboxamide] | < 10 | 10 to 100 |
| CC(C)(O)c1ccc2c(c1)NC(c1c(F)cccc1F)=Nc1cn[nH]c1-2 [Compound 98, 2-(5-(2,6-difluorophenyl)-1,6-dihydrobenzo[d]pyrazolo[3,4-f][1,3]diazepin-8-yl)propan-2-ol] | 10 to 100 | 10 to 100 |
| Fc1cccc(F)c1C1=Nc2cc(OC3CCOCC3)ccc2-c2[nH]ncc2N1 [Compound 99, 5-(2,6-difluorophenyl)-8-((tetrahydro-2H-pyran-4-yl)oxy)-1,4-dihydrobenzo[d]pyrazolo[3,4-f][1,3]diazepine] | 10 to 100 | 10 to 100 |
| Nc1ccc2c(c1)-c1[nH]ncc1N=C(c1c(F)cccc1F)N2 [Compound 103, 5-(2,6-difluorophenyl)-1,6-dihydrobenzo[d]pyrazolo[3,4-f][1,3]diazepin-9-amine] | 100 to 1000 | 10 to 100 |
| O=C(NC1CCOCC1)c1ccc2c(n1)N=C(c1c(F)cccc1F)Nc1cn[nH]c1-2 [Compound 105, 5-(2,6-difluorophenyl)-N-(tetrahydro-2H-pyran-4-yl)-1,4-dihydropyrazolo[4,3-d]pyrido[3,2-f][1,3]diazepine-8-carboxamide] | 10 to 100 | 100 to 1000 |
| COc1cccc(F)c1C1=Nc2cn[nH]c2-c2ccccc2N1 [Compound 114, 5-(2-fluoro-6-methoxyphenyl)-1,6-dihydrobenzo[d]pyrazolo[3,4-f][1,3]diazepine] | 100 to 1000 | 100 to 1000 |
| Cc1ccc2c(c1)-c1[nH]ncc1N=C(c1c(F)cccc1[N+](=O)[O-])N2 [Compound 125, 5-(2-fluoro-6-nitrophenyl)-9-methyl-1,6-dihydrobenzo[d]pyrazolo[3,4-f][1,3]diazepine] | 100 to 1000 | 10 to 100 |
| Cc1ccc2c(c1)-c1[nH]ncc1N=C(c1c(F)cc(NCCF)cc1F)N2 [Compound 126, 3,5-difluoro-N-(2-fluoroethyl)-4-(9-methyl-1,6-dihydrobenzo[d]pyrazolo[3,4-f][1,3]diazepin-5-yl)aniline] | 100 to 1000 | 10 to 100 |
| COc1cc2c(cn1)NC(c1c(F)cccc1F)=Nc1cn[nH]c1-2 [Compound 127, 5-(2,6-difluorophenyl)-9-methoxy-1,6-dihydropyrazolo[4,3-d]pyrido[4,3-f][1,3]diazepine] | 10 to 100 | 10 to 100 |
